Results on 3 compounds are retold here after patent US20250026733A1, “DEUTERATED ANALOGS OF PYROLE INHIBITORS OF ERK, SYNTHESIS THEREOF AND INTERMEDIATES THERETO” (BIOMED VALLEY DISCOVERIES, INC., priority 2022, published 2025).

In one series the target is T1, CYP2C9 (Homo sapiens, UniProt P11712).
T1 construct: from tissue; host or cells: human liver microsomes, mixed-gender pool of 200
Kind of series: In-vitro CYP inhibition study, CYP2C9. It counts as in vitro ADME. To be noted: human liver microsomes, substrate Diclofenac (12 μM). The protocol:
(§1) Incubations were conducted using a cocktail of seven prototypical CYP substrates to ascertain the potential of each test article to inhibit the metabolism of concomitantly administered drugs. A mixed-gender pool of 200 human liver microsomal samples was used for this study. Incubations were conducted at approximately 37° C. in 200 μL incubation mixtures (pH 7.4) containing water, potassium phosphate buffer (50 mM), MgCl2 (3 mM), EDTA (1 mM), an NADPH regenerating system (NADP [1 mM], glucose 6 phosphate [5 mM], glucose 6 phosphate dehydrogenase [1 Unit/mL]), and probe substrate (i.e., a seven substrate cocktail) at the final concentrations indicated in Table 9. Reactions were initiated by the addition of NADPH-regenerating system and were automatically terminated at approximately 5 minutes by the addition of internal standard mixed in stop reagent, acetonitrile. The samples were centrifuged at 920×g for 10 minutes at 10° C. The supernatant fractions were analyzed by LC-MS/MS. To examine its ability to act as a time-dependent inhibitor of CYP enzymes, each test article (at the same concentrations used to evaluate direct inhibition, (i.e. 0, 0.02, 0.06, 0.2, 0.6, 2, 6, 20 μM) was pre-incubated at 37±2° C. with NADPH-fortified human liver microsomes for approximately 30 minutes. The pre-incubations were initiated by the addition of NADPH-regenerating system. After 30 min, probe substrate incubations were initiated by the addition of probe substrate cocktail. Incubations were terminated and samples were analyzed by LC-MS/MS. When inhibition was observed, the data were processed with a LIMS for the determination of IC50 values by utilizing the Levenberg-Marquardt algorithm to perform non-linear regression fitting of the data to the following 4-parameter sigmoidal-logistic IC50 equation:
(§2) As percent of control values are utilized, the minimum value (Min) is set to zero and the maximum value (Max) is set to 100 (or other values, as appropriate). The LIMS calculates an IC50 value only when it lies within the concentration range of the inhibitor studied. Therefore, when an IC50 value falls outside the concentration range studied, the IC50 values are reported to be greater than the highest concentration of the test article evaluated.

The target of a further series is T2, CYP2C19 (Homo sapiens, UniProt P33261).
T2 construct: from tissue; host or cells: human liver microsomes, mixed-gender pool of 200
T2 sequence (P33261 whole entry): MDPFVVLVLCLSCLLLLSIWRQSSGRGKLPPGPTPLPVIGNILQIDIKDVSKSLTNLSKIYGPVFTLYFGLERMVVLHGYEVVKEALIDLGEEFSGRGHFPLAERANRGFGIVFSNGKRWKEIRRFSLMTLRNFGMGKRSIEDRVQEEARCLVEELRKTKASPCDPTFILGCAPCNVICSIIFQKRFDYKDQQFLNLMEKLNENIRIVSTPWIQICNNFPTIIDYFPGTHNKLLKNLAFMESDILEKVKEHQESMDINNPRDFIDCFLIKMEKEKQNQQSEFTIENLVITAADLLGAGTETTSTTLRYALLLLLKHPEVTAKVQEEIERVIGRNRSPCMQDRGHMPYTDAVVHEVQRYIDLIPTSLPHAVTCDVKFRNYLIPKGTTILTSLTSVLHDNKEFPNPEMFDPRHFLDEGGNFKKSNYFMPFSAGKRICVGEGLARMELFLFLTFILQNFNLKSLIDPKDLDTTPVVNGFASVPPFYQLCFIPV
Kind of series: In-vitro CYP inhibition study, CYP2C19. The series is classed as in vitro ADME. Conditions: human liver microsomes, substrate S-Mephenytoin (60 μM). On the procedure:
as §1, §2
On the technique in general: Microsomes from liver hold many membrane-bound enzymes, among them those of drug oxidation.

The subject of series [1] is CYP2B6 mRNA expression. Conditions: human, hepatocytes, 24 h.
Description: (§3) A single preparation of characterized cryopreserved human hepatocytes isolated from non-transplantable human livers was treated in this study. Triplicate wells for each of the cultures were treated in 48-well plates with supplemented MCM (37±2° C.) containing 0.1% v/v DMSO (solvent control), one of three concentrations of each test article (1, 10 and 20 μM) or positive control CYP enzyme inducers omeprazole (50 μM), phenobarbital (1000 μM) or rifampin (20 μM). The cultures were incubated in a humidified culture chamber (37±2° C. at 95% relative humidity, 95/5% air/CO2). Approximately 24 h after treatment, hepatocytes were lysed in Buffer RLT reagent containing β-mercaptoethanol (100:1). The medium was aspirated, and Buffer RLT was added to each well. The cell lysates were prepared by repeated pipetting and shaking. Total RNA was isolated using the RNeasy Mini Kit. RNA quality and concentration were determined by measuring absorbance at 260 and 280 nm on a plate reader. Single-stranded cDNA was prepared from RNA with the RT Master Mix. The RT Master Mix comprises 10×RT buffer, 25× deoxyNTPs, 10× Random primers, RNase Inhibitor (20 U/μL), MultiScribe reverse transcriptase (50 U/μL) and RNase-free water. The RT Master Mix was added to each RNA sample to complete the components of the reaction. No template controls (NTCs) were included in the analysis. For the NTC reactions, RNase-free water was added in place of the RNA sample. The prepared cDNA samples were stored at −20±5° C. following analysis by qRT-PCR. Each PCR was performed in quadruplicate. A Primer Mix was prepared for each Gene Expression assay. A typical Primer Mix contained TaqMan Fast Advanced Master Mix (1×), Gene Expression Assay (1×, 900 nM forward and reverse primers) and RNase-free water. The Reaction Mix was prepared by adding the Primer Mix to cDNA. A percentage of samples (no less than 10%) included NAC (no amplification control) samples. […] Reactions were analyzed on a PCR sequence detection system. The relative quantity of the target cDNA compared with that of the control cDNA (GAPDH) was determined by the ΔΔCt method. Relative quantitation measures the change in mRNA expression in a test sample relative to that in a control sample (e.g., DMSO). This method assumes that the efficiency of the target amplification and the efficiency of the endogenous control amplification are approximately equal.
Series [2] deals with CYP1A2 mRNA expression. To be noted: human, hepatocytes, 24 h.
Description: as §3
For another series, the target named is T3, CYP2B6 (Homo sapiens, UniProt P20813).
T3 construct: from tissue; host or cells: human liver microsomes, mixed-gender pool of 200
T3 sequence (P20813 1-491): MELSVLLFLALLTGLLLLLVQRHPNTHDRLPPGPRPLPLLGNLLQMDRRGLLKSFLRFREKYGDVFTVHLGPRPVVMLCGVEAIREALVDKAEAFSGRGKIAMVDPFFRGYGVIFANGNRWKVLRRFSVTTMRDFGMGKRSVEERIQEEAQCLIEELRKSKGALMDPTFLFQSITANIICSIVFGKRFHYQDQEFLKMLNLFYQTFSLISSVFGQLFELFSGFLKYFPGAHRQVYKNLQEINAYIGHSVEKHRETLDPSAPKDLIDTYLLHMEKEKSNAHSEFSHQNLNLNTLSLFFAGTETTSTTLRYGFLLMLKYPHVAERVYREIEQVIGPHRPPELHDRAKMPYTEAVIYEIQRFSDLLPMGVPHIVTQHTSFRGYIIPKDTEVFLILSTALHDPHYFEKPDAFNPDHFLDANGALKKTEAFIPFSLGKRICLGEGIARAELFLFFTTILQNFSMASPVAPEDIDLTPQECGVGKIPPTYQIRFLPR
Kind of series: In-vitro CYP inhibition study, CYP2B6. It counts as in vitro ADME. To be noted: human liver microsomes, substrate Bupropion (90 μM). On the procedure: as §1, §2

In series [3] the test system is CYP3A4 mRNA expression. To be noted: human, hepatocytes, 24 h.
Description: as §3
Series [4] relates to CYP1A2 mRNA expression. Description: In-vitro CYP induction study, CYP1A2 mRNA in cultured human hepatocytes. To be noted: approximately 24 h.
Description: as §3
Series [5] concerns CYP3A4 mRNA expression. Kind of series: In-vitro CYP induction study, CYP3A4 mRNA in cultured human hepatocytes. Conditions: 20 μM, approximately 24 h.
Description: as §3
In the next series the target is T4, CYP2D6 (Homo sapiens, UniProt P10635).
T4 construct: from tissue; host or cells: human liver microsomes, mixed-gender pool of 200
T4 sequence (P10635 whole entry): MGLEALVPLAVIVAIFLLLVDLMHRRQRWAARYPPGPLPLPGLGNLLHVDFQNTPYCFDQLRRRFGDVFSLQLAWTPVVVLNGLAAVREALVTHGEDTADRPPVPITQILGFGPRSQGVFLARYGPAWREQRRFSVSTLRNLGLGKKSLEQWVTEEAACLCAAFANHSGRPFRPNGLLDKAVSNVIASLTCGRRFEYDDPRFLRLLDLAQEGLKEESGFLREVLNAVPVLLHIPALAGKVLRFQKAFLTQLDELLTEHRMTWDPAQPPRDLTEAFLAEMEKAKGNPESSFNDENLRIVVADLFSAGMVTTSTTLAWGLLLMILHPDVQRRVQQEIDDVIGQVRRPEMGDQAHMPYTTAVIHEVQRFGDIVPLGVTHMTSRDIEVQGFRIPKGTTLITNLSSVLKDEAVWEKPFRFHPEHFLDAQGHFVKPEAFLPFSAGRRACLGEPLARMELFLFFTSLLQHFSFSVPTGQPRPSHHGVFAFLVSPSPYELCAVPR
Description: In-vitro CYP inhibition study, CYP2D6. It counts as in vitro ADME. To be noted: human liver microsomes, substrate Dextramethorphan (10 μM). The protocol: as §1, §2

The test system of series [6] is CYP2B6 mRNA expression. Description: In-vitro CYP induction study, CYP2B6 mRNA in cultured human hepatocytes. Conditions: 20 μM, approximately 24 h.
Description: as §3
Series [7] can be described thus: Half-life determination in human liver microsomes. It counts as in vitro ADME. Conditions: for half-life at 1 μM: human, NADPH; for Half-life, % change relative to ulixertinib: mean. On the procedure:
Human microsomes from a pool of 10 donors was obtained from a commercial source. Microsomes prepared in potassium phosphate buffer were spiked with ulixertinib, Formula 18, Formula 19, and Formula 21 individually in replicates of six at a final concentration of 1 μM. NADPH was used to initiate the experiment; a control of minus NADPH (minus cofactor) was also run in parallel to the human liver microsome stability. After spiking with test article, microsome replicates were placed in a 37° C. incubator with the following time course: 0, 5, 10, 15, 20, 30, 45 and 60 minutes. Samples were extracted with a protein precipitation quench consisting of ice cold acetonitrile containing internal standard (tolbutamide). Samples were analyzed for ulixertinib, Formula 18, Formula 19, and Formula 21. The half-lives of ulixertinib, Formula 18, Formula 19, and Formula 21 were characterized by the […] to determine the elimination rate (ke) and using the formula described below.
[formula] • ke (elimination rate): the slope of ln(percent remaining) vs time (in minutes)

Where [8] appears, read: Rep 1, read-out: Half-life, t½, Rep 1.
Setting [9] is: Rep 2, read-out: Half-life, t½, Rep 2.
[10] abbreviates: Rep 3, read-out: Half-life, t½, Rep 3.
The mark [11] stands for this setting: Rep 4, read-out: Half-life, t½, Rep 4.
The mark [12] stands for this setting: Rep 5, read-out: Half-life, t½, Rep 5.
Where [13] appears, read: Rep 6, read-out: Half-life, t½, Rep 6.
Where [14] appears, read: six replicates, read-out: Half-life, t½, Mean ± SD.

SMILES strings stand for the structures. Like-named read-outs stand apart in the source and are kept apart here.

T1 sequence (P11712 whole entry): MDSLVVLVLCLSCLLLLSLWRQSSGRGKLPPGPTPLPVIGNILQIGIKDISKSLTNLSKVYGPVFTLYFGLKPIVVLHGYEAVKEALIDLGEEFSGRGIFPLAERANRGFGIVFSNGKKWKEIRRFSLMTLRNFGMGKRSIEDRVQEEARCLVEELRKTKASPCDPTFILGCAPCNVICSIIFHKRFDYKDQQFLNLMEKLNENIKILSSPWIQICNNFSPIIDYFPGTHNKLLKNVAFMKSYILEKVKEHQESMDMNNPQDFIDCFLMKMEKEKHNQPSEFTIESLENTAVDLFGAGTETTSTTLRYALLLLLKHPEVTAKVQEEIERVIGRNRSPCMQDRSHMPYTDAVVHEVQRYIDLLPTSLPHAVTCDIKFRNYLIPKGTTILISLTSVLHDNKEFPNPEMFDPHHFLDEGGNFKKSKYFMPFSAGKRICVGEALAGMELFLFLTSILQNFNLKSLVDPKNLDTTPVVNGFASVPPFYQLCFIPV

Usually IC50 stands for the midpoint of a concentration-inhibition curve. Read a low IC50 as inhibition by little substance. Usually half-life stands for how long it takes for the measured level to halve. For `[2H]C([2H])([2H])C([2H])(Nc1cc(-c2c[nH]c(C(=O)N[C@H](CO)c3cccc(Cl)c3)c2)c(Cl)cn1)C([2H])([2H])[2H]` [Formula 18, 4-(5-chloro-2-((propan-2-yl-d7)amino)pyridin-4-yl)-N-(1-(3-chlorophenyl)-2-hydroxyethyl)-1H-pyrrole-2-carboxamide], the IC50 came out at 3.5 µM on CYP2C9 (preincubation 0 min); 3.9 µM at CYP2C9 (preincubation 30 min); 9.6 µM against CYP2C19 (preincubation 0 min); 11 µM against CYP2C19 (preincubation 30 min); 12 µM at CYP2B6 (preincubation 0 min); 16 µM against CYP2B6 (preincubation 30 min). For the same compound, the IC50 at CYP2D6 (preincubation 0 min) is over 20 µM; against CYP2D6 (preincubation 30 min) it was 19 µM. For the same compound, the “Fold Change in mRNA Expression of CYP2B6” value in the series on CYP2B6 mRNA expression [1] (1 μM) came out at 1.36 fold; with CYP2B6 mRNA expression [1] (10 μM), 1.90 fold; in the series on CYP2B6 mRNA expression [6], 2.54 fold. The “Fold Change in mRNA Expression of CYP1A2” value in the series with CYP1A2 mRNA expression [2] (1 μM) is 3.02 fold; in the series with CYP1A2 mRNA expression [2] (10 μM) it was 5.94 fold; in the series on CYP1A2 mRNA expression [4] (20 μM) it was 7.56 fold. For the same compound, the results for the “Fold Change in mRNA Expression of CYP3A4” value with CYP3A4 mRNA expression [3] (1 μM), with CYP3A4 mRNA expression [3] (10 μM) and with CYP3A4 mRNA expression [5] were 1.83 fold, 5.39 fold and 7.06 fold, respectively. In addition, the “longer half-life than ulixertinib” value in series [7] (Table 5) is reported as 21%. The half-life at 1 μM in [7] (setting [8]) was determined as 59.2 min; in series [7] (setting [9]), 58.7 min; in series [7] (setting [10]) it was 60.6 min; in series [7] (setting [11]), 55.8 min; in [7] (setting [12]) it was 57.5 min; in series [7] (setting [13]), 62 min. The half-life at 1 μM in series [7] (setting [14]) was 59 ± 2.2 min. For the same compound, the “Half-life, % change relative to ulixertinib” value in series [7] was “(+21%)”.

For `[2H]C([2H])([2H])C(Nc1cc(-c2c[nH]c(C(=O)N[C@H](CO)c3cccc(Cl)c3)c2)c(Cl)cn1)C([2H])([2H])[2H]` [Formula 19, 4-(5-chloro-2-((propan-2-yl-1,1,1,3,3,3-d6)amino)pyridin-4-yl)-N-(1-(3-chiorophenyl)-2-hydroxyethyl)-1H-pyrrole-2-carboxamide], the IC50 against CYP2C9 (preincubation 0 min) worked out at 3.1 µM; on CYP2C9 (preincubation 30 min), 4.3 µM; on CYP2C19 (preincubation 0 min) it was 10 µM; against CYP2C19 (preincubation 30 min), 12 µM; against CYP2B6 (preincubation 0 min), 14 µM; against CYP2B6 (preincubation 30 min), 16 µM. The half-inhibitory concentration (IC50) on CYP2D6 (preincubation 30 min) is over 20 µM. The “Fold Change in mRNA Expression of CYP2B6” value in the series with CYP2B6 mRNA expression [1] (1 μM) amounted to 1.47 fold; in the series on CYP2B6 mRNA expression [1] (10 μM) it was 2.10 fold; in the series with CYP2B6 mRNA expression [6], 2.44 fold. Moreover, the “Fold Change in mRNA Expression of CYP1A2” value is on record as 3.57 fold with CYP1A2 mRNA expression [2] (1 μM), 9.52 fold in the series on CYP1A2 mRNA expression [2] (20 μM) and 12.1 fold with CYP1A2 mRNA expression [4] (10 μM). The “Fold Change in mRNA Expression of CYP3A4” value is 2.06 fold in the series on CYP3A4 mRNA expression [3] (1 μM), 9.42 fold with CYP3A4 mRNA expression [3] (10 μM) and 11.7 fold with CYP3A4 mRNA expression [5]. The compound also showed an IC50 at 5 min against CYP2D6 (both sexes, human, pH 7.4, probe Dextramethorphan (10 μM), preincubation 0 min) of 20 µM. In addition, in [7] (Table 5), the “shorter half-life compared to ulixertinib” value stood at 7%. Further, the half-life at 1 μM was 43.4 min in series [7] (setting [8]); 45.2 min in series [7] (setting [9]); 46.1 min in [7] (setting [10]); 44.9 min in [7] (setting [11]); 47.8 min in series [7] (setting [12]); 44.9 min in series [7] (setting [13]). Also, the half-life at 1 μM in [7] (setting [14]) stood at 45.4 ± 1.5 min. Moreover, the “Half-life, % change relative to ulixertinib” value in [7] was “(−7%)”.

With `Cl.[2H]C(C)(C)Nc1cc(-c2c[nH]c(C(=O)N[C@H](CO)c3cccc(Cl)c3)c2)c(Cl)cn1` [Formula 21A], the IC50 against CYP2C9 (preincubation 0 min) amounted to 3.4 µM; against CYP2C9 (preincubation 30 min) it was 4.4 µM; against CYP2C19 (preincubation 0 min), 19 µM; at CYP2C19 (preincubation 30 min), 19 µM; on CYP2B6 (preincubation 0 min) it was 17 µM; at CYP2B6 (preincubation 30 min), 19 µM. The IC50 against CYP2D6 (preincubation 0 min) and against CYP2D6 (preincubation 30 min) was over 20 µM in each case. Moreover, the “Fold Change in mRNA Expression of CYP2B6” value in the series with CYP2B6 mRNA expression [1] (1 μM) is listed as 1.08 fold; with CYP2B6 mRNA expression [1] (10 μM) it was 2.04 fold; in the series on CYP2B6 mRNA expression [6] it was 2.22 fold. In addition, the figures for the “Fold Change in mRNA Expression of CYP1A2” value with CYP1A2 mRNA expression [2] (20 μM), with CYP1A2 mRNA expression [4] (1 μM) and with CYP1A2 mRNA expression [4] (10 μM) were 4.00 fold, 2.22 fold and 8.51 fold, respectively. For the same compound, the “Fold Change in mRNA Expression of CYP3A4” value amounted to 1.39 fold with CYP3A4 mRNA expression [3] (1 μM), 5.29 fold in the series with CYP3A4 mRNA expression [3] (10 μM) and 6.86 fold in the series with CYP3A4 mRNA expression [5].
